From patent US20030162760A1 (priority 1999, published 2003)
Converted amounts (≈) assume the structure as drawn. Like-named read-outs stand apart in the source and are kept apart here.

Tests used:
[1] = system: hyaluronidase derived from Propionibacterium; test: Hyaluronidase inhibitory activity, partially purified enzyme, hyaluronic acid substrate; type: biochemical, Propionibacterium acnes JCM6425; conditions: for Inhibitory Ratio: P. acnes hyaluronidase, pH 7.0, 30° C., 15 minutes
Procedure: The activity of inhibiting hyaluronidase derived from Propionibacterium of the ascorbic acid-2-phosphate zinc salt, the ascorbic acid-2-phosphate and zinc salt mixture and the ascorbic acid-2-glucoside and zinc salt mixture of the present invention was examined.
(§1) The culture solution of Propionibacterium acnes JCM6425 cultured in the same manner as in Example 7 was dialyzed with 50 mM phosphate buffer, then concentrated to about 1/10 the amount using a membrane having a fraction molecular weight of 10,000 and used as the hyaluronidase partially purified product.
To 1.8 ml of 50 mM HEPES buffer (pH: 7.0) separately placed in a small test tube, 0.2 ml of the […] partially purified product was added and thereto, APZ, AP+Zn and AG+Zn prepared in Examples 1 to 3, APM and AG were added each to have concentrations of 0.1 mg/ml, 1 mg/ml and 10 mg/ml. The reaction was started by addition of a substrate hyaluronic acid at a final concentration of 0.8 mg/ml. The reaction was performed at 30° C. for 15 minutes under shaking. After the shaking, 0.1 ml of 0.2M potassium tetraborate was added, kept at 100° C. for 3 minutes and cooled. To this solution, 3 ml of a paradimethylaminobenzaldehyde reagent (obtained by mixing and dissolving 10 g of dimethylaminobenzaldehyde, 12.5 ml of 10N hydrochloric acid and 77.5 ml of glacial acetic acid) 10 times diluted with glacial acetic acid was added and left standing at 37° C. for 20 minutes to allow reaction with N-acetylglucosamine liberated to proceed and thereby cause coloring. The absorbance at a wavelength of 544 nm was measured and the difference from the absorbance of a control test tube where the substrate was not present was used as the activity. The ratio between activity when a sample was present and activity when the sample was not present was calculated as the inhibitory ratio of each sample and the values obtained were compared.

[2] = system: lipase derived from Propionibacterium; test: Lipase inhibitory activity (2), partially purified lipase, paranitrophenyl palmitate substrate; type: biochemical, Propionibacterium acnes JCM6425; conditions: for Inhibitory Ratio: P. acnes lipase, pH 6.5, 30° C., 120 minutes
Procedure: The activity of inhibiting lipase derived from Propionibacterium of the ascorbic acid-2-phosphate zinc salt, the ascorbic acid-2-phosphate and zinc salt mixture and the ascorbic acid-2-glucoside and zinc salt mixture of the present invention was examined.
as §1, with “an ultrafiltration film” for “a membrane”, “lipase” for “hyaluronidase”
(§2) To 1.9 ml of 50 mM HEPES buffer (pH: 6.5) separately placed in a small test tube, 0.1 ml of the lipase partially purified product was added and thereto, APZ, AP+Zn and AG+Zn prepared in Examples 1 to 3, APM and AG were added each to have concentrations of 0.1 mg/ml, 1 mg/ml and 10 mg/ml. The reaction was started by addition of a substrate paranitrophenyl palmitate at a final concentration of 0.14 mg/ml. The reaction was performed at 30° C. for 120 minutes under shaking. After completion of the reaction, the absorbance at a wavelength of 405 nm was measured and the difference from the absorbance of a control test tube where the substrate was not present was used as the activity. The ratio between activity when a sample was present and activity when the sample was not present was calculated as the inhibitory ratio of each sample and the values obtained were compared.

[3] = system: Pseudomonas-derived lipase type XIII; test: Lipase inhibitory activity (1), paranitrophenyl palmitate substrate; type: biochemical; conditions: for Inhibitory Ratio: Pseudomonas lipase, pH 7.0, 30° C., 10 minutes
Procedure: The activity of inhibiting lipase derived from Pseudomonas of the ascorbic acid-2-phosphate zinc salt, the ascorbic acid-2-phosphate and zinc salt mixture and the ascorbic acid-2-glucoside and zinc salt mixture of the present invention was examined.
as §2, with “Pseudomonas-derived lipase type XIII (produced by Sigma) was dissolved in 100 mM phosphate buffer (pH: 7.0) to have a final concentration of 43 mU/ml. 2” for “To 1.9”, “the resulting solution was poured” for “50 mM HEPES buffer (pH: 6.5) separately placed”, “tube” for “tube, 0.1 ml of the lipase partially purified product was added”, “prepared as” for “prepared”, “of” for “of 0.1 mg/ml,”, “10” for “120”

[4] = system: Propionibacterium acnes JCM6425 strain; test: Minimum inhibitory concentration (MIC) against Propionibacterium, turbidity of culture; type: cell-based
Procedure: By the measurement of minimum inhibitory concentration (MIC), the ascorbic acid-2-phosphate zinc salt, the ascorbic acid-2-phosphate and zinc salt mixture and the ascorbic acid-2-glucoside and zinc salt mixture of the present invention were determined on their antibacterial action against Propionibacterium.
A platinum-loopful of cells of fresh Propionibacterium acnes JCM6425 strain were inoculated in a test tube containing 5 ml of GAM broth medium (produced by Nissui K.K.) previously sterilized and deaerated. Thereto, APZ, AP+Zn and AG+Zn prepared as in Examples 1 to 3, APM and AG, each diluted in a common ratio of 2 to have a concentration of from 10 to 0.078 mg/ml, were added and cultured at 35° C. for 72 hours under anaerobic conditions. After completion of cultivation, the test tube was thoroughly shaken and the turbidity of the culture solution was measured. The minimum concentration when the turbidity was not increased by cultivation was used as the minimum inhibitory concentration (MIC).

[5] = system: Staphylococcus aureus IFO12732 strain; test: Minimum inhibitory concentration (MIC) against Staphylococcus, turbidity of culture; type: cell-based
Procedure: A platinum-loopful of cells of fresh Staphylococcus aureus IFO12732 strain were inoculated in a test tube containing 5 ml of nutrient broth medium (produced by Difco) previously sterilized and deaerated. […] After the completion of cultivation, the turbidity of the culture solution was measured. The minimum concentration when turbidity was not increased by the cultivation was used as the minimum inhibitory concentration (MIC).

Compound	Inhibitory Ratio ([1]; sample 0.1 mg/ml) [%]	Inhibitory Ratio ([1]; sample 1 mg/ml) [%]	Inhibitory Ratio ([1]; sample 10 mg/ml) [%]	Inhibitory Ratio ([2]; sample 0.1 mg/ml) [%]	Inhibitory Ratio ([2]; sample 1 mg/ml) [%]	Inhibitory Ratio ([2]; sample 10 mg/ml) [%]	Inhibitory Ratio ([3]; sample 1 mg/ml) [%]	Inhibitory Ratio ([3]; sample 10 mg/ml) [%]	MIC ([4]; Propionibacterium acnes JCM6425, GAM broth, 35° C., 72 hours, anaerobic) [µg/mL]	MIC ([5]; Staphylococcus aureus IFO12732, nutrient broth, 35° C., 48 hours, shaking) [µg/mL]	hyaluronidase inhibitory activity (in words) ([1]; Propionibacterium-derived hyaluronidase, summary of Table 5)	lipase inhibitory activity (in words) ([2]; Propionibacterium-derived lipase, summary of Table 4)	lipase inhibitory activity (in words) ([3]; Pseudomonas-derived lipase, summary of Table 3)	MIC ([4]; Cutibacterium acnes, JCM6425, 72 h) [µg/mL]	antibacterial activity against Propionibacterium (in words) ([4]; summary of Table 1)	MIC ([5]; Staphylococcus aureus, IFO12732, 48 h) [µg/mL]	antibacterial action against Staphylococcus (in words) ([5]; summary of Table 2)	MIC ([4]; Cutibacterium acnes, Propionibacterium acnes JCM6425, GAM broth, 35° C., 72 hours, anaerobic, read-out: MIC) [µg/mL]	MIC ([5]; Staphylococcus aureus IFO12732, nutrient broth, 35° C., 48 hours, shaking, read-out: MIC) [µg/mL]
O=C1O[C@H]([C@@H](O)CO)C(O)=C1O[C@H]1O[C@H](CO)[C@@H](O)[C@H](O)[C@H]1O [AG, L-ascorbic acid-2-O-glucoside]	10	13	22	0	0	0	0	0	>10000	10000 (≈ 29.6 mM)									
O=C1OC(C(O)CO)C2=C1OP(=O)([O][Zn][O]P1(=O)[O][Zn][O]C3=C(O1)C(=O)OC3C(O)CO)[O][Zn][O]2 (centres unmarked)	80	98	100	93	100	100	76	98			verified to have strong hyaluronidase inhibitory activity	verified to have strong lipase inhibitory activity	verified to have lipase inhibitory activity	313	verified to have antibacterial activity	625	verified to have antibacterial action		
O=C1O[C@H]([C@@H](O)CO)C(O)=C1OP(=O)([O-])[O-].[Mg+2] [APM, L-ascorbic acid-2-phosphate magnesium salt]	22	32	34	0	0	0	0	0										> 10000	10000
